Experiments:
Format in all cases: in vivo, human
[1] = test system: Subjects Having Insomnia Disorder; test: Example 2: Cognitive Performance Assessment Battery; conditions: either dose, at either time point (FIGS. 11A-11D)
Protocol: FIG. 11A-FIG. 11D show the change from baseline (least squares mean) in the four domains of the Cognitive Performance Assessment Battery at Days 2/3 and Days 30/31 in patients treated with placebo, 6.25 mg of zolpidem, 5 mg of lemborexant, or 10 mg of lemborexant.
Subjects were provided with a sleep diary and trained on how to record entries. After subjects completed the sleep diary on 7 consecutive mornings, and provided that the subject was still eligible to participate in the study, they attended a second clinical meeting between 10 and 17 days before the randomization phase. […]
Within 5 minutes of the subject's mean habitual bedtime, study drug was administered and an overnight polysomnogram recording was initiated. At completion of the recording the following morning (Day 2), postural stability and cognitive performance were assessed. […] The next morning (Day 3), postural stability and cognitive performance were assessed. […]
On Day 29, subjects returned to the clinic. […] On the following morning (Day 30), postural stability and cognitive performance were assessed. […]
On the evening of Day 30, subjects returned to the clinic. […] The following morning (Day 31), postural stability and cognitive performance were assessed and a blood sample was obtained. […] An electrocardiogram was performed, and vital signs and weight were assessed. […]

[2] = test system: Subjects Having Insomnia Disorder; test: Example 2: treatment-emergent adverse events
Protocol: Between 14 and 18 days after completion of the treatment period, subjects returned to the clinic for the end of study visit. The T-BWSQ and eC-SSRS were administered and routine safety assessments were conducted.
A subject who prematurely discontinued taking study drug was to return to the clinic as soon as practicable after discontinuing study drug. If the subject discontinued due to an adverse event, the adverse event must have been followed to resolution or for 2 weeks, whichever came first. Additionally, subjects who discontinued early underwent a urine drug test.

[3] = test system: Subjects Having Insomnia Disorder; test: Example 2: return to sleep latency
[4] = test system: Subjects Having Insomnia Disorder; test: Example 2: wake after sleep onset (WASO), polysomnography; conditions: Days 1/2
Protocol: In some embodiments, a sleep parameter is determined objectively using polysomnography. Polysomnography is the monitoring of multiple electrophysiological parameters during sleep and generally includes measurement of EEG activity, electro-oculographic activity and electromyographic activity, as well as other measurements.
WASO—wake after sleep onset: minutes of wake from the onset of persistent sleep until lights on.
The treatment period lasted for 31 days. Subjects were randomized in a double-blind manner and received placebo, a tablet containing 5 mg of lemborexant, a tablet containing 10 mg of lemborexant, or a tablet containing 6.25 mg of zolpidem ER.
Within 5 minutes of the subject's mean habitual bedtime, study drug was administered and an overnight polysomnogram recording was initiated. At completion of the recording the following morning (Day 2), postural stability and cognitive performance were assessed. On the Day 2 evening, subjects returned to the clinic and a blood sample was collected before administering study drug, and then study drug was administered within 5 minutes of the subject's mean habitual bedtime. Again, a polysomnogram recording was initiated. The next morning (Day 3), postural stability and cognitive performance were assessed. A blood sample was also collected.
On Day 29, subjects returned to the clinic. Study drug was administered within 5 minutes of the subject's mean habitual bedtime and a polysomnogram recording was conducted. On the following morning (Day 30), postural stability and cognitive performance were assessed. After 1.5 hours of waketime, subjects rated their morning sleepiness level.
On the evening of Day 30, subjects returned to the clinic. A pre-dose blood sample was collected and study drug was again administered within 5 minutes of the subject's mean habitual bedtime. A polysomnogram recording was initiated. The following morning (Day 31), postural stability and cognitive performance were assessed and a blood sample was obtained. The ISI, FSS, EQ-5D-3L and PGI-Insomnia were administered. Blood and urine samples were collected for routine safety assessment. An electrocardiogram was performed, and vital signs and weight were assessed. The eC-SSRS was then administered to the subject. At 1.5 hours after waketime, subjects rated their morning sleepiness level.
Another key secondary endpoint was to determine the change from baseline for mean wake after sleep onset on Days 29 and 30 after administration of 5 mg or 10 mg of lemborexant, compared to placebo.

What does the source list for Cc1ncc(OC[C@@]2(c3cccc(F)c3)C[C@H]2C(=O)Nc2ccc(F)cn2)c(C)n1 [Lemborexant, (1R,2S)-2-(((2,4-dimethylpyrimidin-5-yl)oxy)methyl)-2-(3-fluorophenyl)-N-(5-fluoropyridin-2-yl)cyclopropanecarboxamide]?
cognitive tests compared with placebo [1]: neither dose of lemborexant differed from placebo; safety and tolerability (incidence of adverse events) ([2]; Example 2 (Table 29)): safe and well-tolerated; Congenital anomaly/birth defect ([2]; Lemborexant 5 mg (N = 266)): 0 n (%); Deaths ([2]; Lemborexant 5 mg (N = 266)): 0 n (%); Important medical events ([2]; Lemborexant 5 mg (N = 266)): 1 (0.3) n (%); Life threatening ([2]; Lemborexant 5 mg (N = 266)): 0 n (%); Other SAEs ([2]; Lemborexant 5 mg (N = 266)): 2 (0.8) n (%); Persistent or significant disability or incapacity ([2]; Lemborexant 5 mg (N = 266)): 0 n (%); Requires inpatient hospitalization or prolongation of existing hospitalization ([2]; Lemborexant 5 mg (N = 266)): 2 (0.8) n (%); Serious TEAEs ([2]; Lemborexant 5 mg (N = 266)): 2 (0.8) n (%); Severe TEAEs ([2]; Lemborexant 5 mg (N = 266)): 1 (0.4) n (%); TEAEs ([2]; Lemborexant 5 mg (N = 266)): 74 (27.8) n (%); TEAEs leading to study dose reduced ([2]; Lemborexant 5 mg (N = 266)): 0 n (%); TEAEs leading to study drug dose adjustment ([2]; Lemborexant 5 mg (N = 266)): 3 (1.1) n (%); TEAEs leading to study drug interrupted ([2]; Lemborexant 5 mg (N = 266)): 1 (0.4) n (%); TEAEs leading to study drug withdrawal ([2]; Lemborexant 5 mg (N = 266)): 2 (0.8) n (%); Treatment-related TEAEs ([2]; Lemborexant 5 mg (N = 266)): 30 (11.3) n (%); Congenital anomaly/birth defect ([2]; Lemborexant 10 mg (N = 268)): 0 n (%); Deaths ([2]; Lemborexant 10 mg (N = 268)): 0 n (%); Important medical events ([2]; Lemborexant 10 mg (N = 268)): 0 n (%); Life threatening ([2]; Lemborexant 10 mg (N = 268)): 0 n (%); Other SAEs ([2]; Lemborexant 10 mg (N = 268)): 0 n (%); Persistent or significant disability or incapacity ([2]; Lemborexant 10 mg (N = 268)): 0 n (%); Requires inpatient hospitalization or prolongation of existing hospitalization ([2]; Lemborexant 10 mg (N = 268)): 0 n (%); Serious TEAEs ([2]; Lemborexant 10 mg (N = 268)): 0 n (%); Severe TEAEs ([2]; Lemborexant 10 mg (N = 268)): 2 (0.7) n (%); TEAEs ([2]; Lemborexant 10 mg (N = 268)): 82 (30.6) n (%); TEAEs leading to study dose reduced ([2]; Lemborexant 10 mg (N = 268)): 0 n (%); TEAEs leading to study drug dose adjustment ([2]; Lemborexant 10 mg (N = 268)): 3 (1.1) n (%); TEAEs leading to study drug interrupted ([2]; Lemborexant 10 mg (N = 268)): 0 n (%); TEAEs leading to study drug withdrawal ([2]; Lemborexant 10 mg (N = 268)): 3 (1.1) n (%); Treatment-related TEAEs ([2]; Lemborexant 10 mg (N = 268)): 39 (14.6) n (%); Return to Sleep Latency, LSM - Difference vs. Placebo ([3]; Lemborexant 5 mg): -22.5 min; Return to Sleep Latency, Mean (SD) change from baseline ([3]; Lemborexant 5 mg): -22.8 min; Return to Sleep Latency, Postdose ([3]; Lemborexant 5 mg): 18.1 min; Return to Sleep Latency, LSM - Difference vs. Placebo ([3]; Lemborexant 10 mg): -28.7 min; Return to Sleep Latency, Mean (SD) change from baseline ([3]; Lemborexant 10 mg): -28.7 min; Return to Sleep Latency, Postdose ([3]; Lemborexant 10 mg): 12.1 min; return to sleep latency ([3]; both doses, vs placebo and zolpidem (Table 28)): greater reduction in return to sleep latency than treatment with placebo and zolpidem; Wake After Sleep Onset, Change from Study Baseline, Mean (SD) ([4]; Lemborexant 5 mg): −49.96 (39.578); Wake After Sleep Onset, Change from Study Baseline, Median ([4]; Lemborexant 5 mg): −46.75; Wake After Sleep Onset, Mean (SD) ([4]; Lemborexant 5 mg): 63.48 (31.484); Wake After Sleep Onset, Median ([4]; Lemborexant 5 mg): 58.38; Wake After Sleep Onset, Change from Study Baseline, Mean (SD) ([4]; Lemborexant 10 mg): −59.59; Wake After Sleep Onset, Change from Study Baseline, Median ([4]; Lemborexant 10 mg): −54.50; Wake After Sleep Onset, Mean (SD) ([4]; Lemborexant 10 mg): 55.23; Wake After Sleep Onset, Median ([4]; Lemborexant 10 mg): 48.75

Source: US20220305012A1, “L[…] TREATING SLEEP ISSUES” (EISAI R&D MANAGEMENT CO., LTD., priority 2019, published 2022)
